We go through 2 compounds from patent US7893299B2, “Interleukin-1 and tumor necrosis factor-αmodulators; syntheses of such modulators and methods of using such modulators” (Nereus Pharmaceuticals, Inc., priority 2005, dated 2011).

Where two headings read alike, the source gives them in different places.

For test [1], the system named is NF-κB DNA binding activity. Kind of test: NF-κB DNA binding activity, EMSA, PC-3. In kind it is cell-based. The conditions noted are these: TNF-α. (In general: Mobility shift assays separate free from complexed probe on a gel.)
Test [2] has as its system bortezomib-resistant DHL-4 lymphoma cells. Kind of test: viability of bortezomib-resistant DHL-4 lymphoma cells. The format is cell-based. The conditions noted are these: 48 hours; 0, 12, 25 and 50 uM. Here is the method:
(§1) Two cell-based assays were treated with NPI-1387 for 48 hours at concentrations of 0, 12, 25 and 50 uM. Both Bcl-2-overexpressing MM.1S cells and bortezomib-resistant DHL-4 lymphoma cells were used and the percentage of viable cells of each was recorded. […] (See FIG. 67).

The subject of test [3] is NF-κB DNA binding activity. Description: NF-κB DNA binding activity, EMSA, RPMI 8226. The format is cell-based. The conditions noted are these: LPS.
Test [4] deals with Bcl-2-overexpressing MM.1S cells. Kind of test: viability of Bcl-2-overexpressing MM.1S cells. The format is cell-based. The settings on record: 48 hours; 0, 12, 25 and 50 uM. How it is done:
as §1

The subject of a further test is MM cells. Kind of test: MM cell death after 48 hours on co-administration with other drugs. The format is cell-based. Here is the method: In Vitro assays measuring the percentage of MM cell death after 48 hours were carried out with bortezomib and dexamethasone, each in concert with NPI-1387. […] (See FIGS. 70 and 71).
Another test relates to Panc1 cells. Kind of test: apoptosis by PI FACS analysis, Panc1. In kind it is cell-based, human. The conditions noted are these: combination treatment with Salinosporamide A, increased from 4%. An excerpt:
Novel diterpene inhibitors of NFκB derived from acanthoic acid (NPI-1342 (Formula IIB-a1) and NPI-1387; compound 24 under scheme 4 above) show measurable effects in human pancreatic cancer cell lines in vitro. Seven of the nine cell lines were moderately sensitive to apoptosis induced by death receptor ligand Tumor Necrosis Factor (TNF) related apoptosis-inducing ligand (TRAIL). […] Specific silencing of NFkB/p65 expression mimicked these effects. Furthermore, combination treatment of Salinosporamide A and either NPI-1342 or NPI-1387 led to induction of apoptosis as measured by PI FACS analysis. Specifically, levels of DNA fragmentation increased from 4% to 50% in HS766T cells and from 4% to 52% in Panc1 cells. The inhibitory effects of NPI-1342, NPI-1387 on NFκB were evaluated by Electromobility Shift Assays and confirmed by confocal microscopy.

The next test relates to PC3 (Prostate). Description: 48 hr cytotoxicity, PC-3. In kind it is cell-based, human. Here is the method: B16-F10 (ATCC; CRL-6475), DU 145 (ATCC; HTB-81), HEK293 (ATCC; CRL-1573), HT-29 (ATCC; HTB-38), LoVo (ATCC; CCL-229), MDA-MB-231 (ATCC; HTB-26), MIA PaCa-2 (ATCC; CRL-1420), NCI-H292 (ATCC; CRL-1848), OVCAR-3 (ATCC, HTB-161), PANC-1 (ATCC; CRL-1469), PC-3 (ATCC; CRL-1435), RPMI 8226 (ATCC; CCL-155) and U266 (ATCC; TIB-196) are maintained in appropriate culture media. The cells are cultured in an incubator at 37° C. in 5% CO2 and 95% humidified air.
For cell growth inhibition assays, B16-F10, DU 145, HEK293, HT-29, LoVo, MDA-MB-231, MIA PaCa-2, NCI-H292, OVCAR-3, PANC-1, PC-3, RPMI 8226 and U266 cells are seeded at 1.25×10^3, 5×10^3, 1.5×10^4, 5×10^3, 5×10^3, 1×10^4, 2×10^3, 4×10^3, 1×10^4, 7.5×10^3, 5×10^3, 2×10^4, 2.5×10^4 cells/well respectively in 90 μl complete media into Corning 3904 black-walled, clear-bottom tissue culture plates. 20 mM stock solutions of compounds of Formula II, IIA, and IIB are prepared in 100% DMSO, aliquoted and stored at −80° C. Compounds of Formula II, IIA, and IIB are serially diluted and added in triplicate to the test wells resulting in final concentrations ranging from of 20 μM to 0.2 pM. […]
Following 48 hours of drug exposure, 10 μl of 0.2 mg/ml resazurin (obtained from Sigma-Aldrich Chemical Co.) in Mg^2+, Ca^2+ free phosphate buffered saline is added to each well and the plates are returned to the incubator for 3-6 hours. Since living cells metabolize Resazurin, the fluorescence of the reduction product of Resazurin is measured using a Fusion microplate fluorometer (Packard Bioscience) with λex=535 nm and λem=590 nm filters. […]
The cytotoxicity assays were performed by seeding individual cell lines at appropriate density in the 96 well flat-bottomed plates and allowed to attach for 24 hours at 37° C., 5% CO2 and 95% humidified air (RPMI 8226 and U266 cells were plated in 96 well plates on the day of compound addition). […] Cell viability was assessed 48 hours later by measuring the fluorescence of the reduction product of Resazurin by a Fusion microplate fluorometer (PerkinElmer) with λex=535 nm and λem=590 nm filters. […]

The next test has as its system IL-8 production. Kind of test: LPS-stimulated IL-8 levels in RPMI 8226 cells (ELISA). The conditions noted are these: 20 μM to 0.16 μM. The format is cell-based, human. Here is the method:
Ninety μl of 2.8×10^5/ml and 0.5 ml of 5×10^5/ml RMPI 8226 cells (#CCL-155C, American Type Culture Collection) were seeded in 96-well and 6-well plate in LGM-3 medium, respectively. Cells were cultured overnight at 37° C., 5% CO2 and 95% humidified air. 8-point serial dilution of TTL3 or formula (IIB-A1) was added to cells for 1 hr at the final concentration ranging from 20 μM to 0.16 μM. DMSO was used as control. After 1 hr, 50 ng/ml of LPS diluted in LGM-3 medium from 1 mg/ml stock solution was added to stimulate the cells for additional 10 hr. Supernatants were collected and IL-8 and IL-10 levels were analyzed by using the human IL-8 and IL-10 cytoset ELISA kits.
Background: An ELISA detects its analyte on a solid surface through an enzyme-linked reagent.

Take `C=CC(=O)C1(C)CCCC2(C)C3=CCC(C)(C=C)C[C@@H]3CC[C@H]12` (stereo in doubt) [NPI-1387, 1-[(1S,4aS,7R)-1,4a,7-Trimethyl-7-vinyl-1,2,3,4,4a,6,7,8,8a,9,10,10a-dodecahydro-1-phenanthrenyl]-2-propen-1-one]: the “NF-κB DNA binding activity” value in test [1] and in test [3] was “inhibits the DNA binding activity of NF-κB in a dose-dependent manner” each time. In addition, the “percentage of viable cells” value in test [2] and in test [4] was “marked decrease in the percentage of viable cells” throughout. Further, the “percentage of MM cell death, co-administration with bortezomib” value in the test on MM cells is on record as “additive effects in increasing the percentage of MM cell death”. In addition, the “percentage of MM cell death, co-administration with dexamethasone” value in the test on MM cells is reported as “additive effects in increasing the percentage of MM cell death”. Also, the “levels of DNA fragmentation” value with Panc1 cells turned out to be 52%. Besides, the IC50 (usually the midpoint of a concentration-inhibition curve) came to 10 ± 2 µM with PC3 (Prostate) and 11 ± 2 µM with PC3 (Prostate) (Homo sapiens, 48 h).
Turning to `C=C[C@@]1(C)CCC=C2[C@H]1CC[C@@H]1[C@](C)(C(=O)NC3CCCCC3)CCC[C@@]21C` [Formula (IIB-A1), N-Cyclohexylamide Derivative of TTL], the “LPS-induced IL-8 production” value was “reduces LPS-induced IL-8 and IL-10 production in a dose-dependent manner” in the test on IL-8 production; “inhibits the LPS-induced IL-8 and IL-10 production” in the test with IL-8 production (listed as formula (IIB-A1)).
